Among the test systems are SK-MEL-2; EKVX; IGROV-1; PC-3; SNB-19; U-251; HL-60; SNB-75; HCT-116; HCT-15; CCRF-CEM; Malme-3M; DU-145; RPMI-8226; SF-295; NCI/ADR-RES; K562; MDA-MB-231; HT-29; A549.
Holding throughout (assay): growth of human tumour cells (NCI), 48 h

The source of these data is ChEMBL document CHEMBL1201862, “PubChem BioAssay data set” (2004).

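Briefly, cells in 96-well plates were exposed to five compound concentrations for 48 h, and endpoints were estimated by linear interpolation. GI50 is the concentration that inhibits growth by half.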 Active and inactive are the calls of the source. Rule as the data show it: active = GI50 up to about 1.1 µM and inactive = higher.

Consider `COc1cc(C=C2C(=O)NC(=S)NC2=O)cc(OC)c1OC`, for which the GI50 in the assay on SK-MEL-2, in the assay on EKVX, in the assay on IGROV-1, in the assay on PC-3, with SNB-19 and with U-251 was > 100 µM (inactive) throughout. The GI50 in the assay with HL-60 is > 100 µM (inactive); with SNB-75 it was 60.7 µM (inactive); in the assay with HCT-116, > 100 µM (inactive); in the assay on HCT-15 it was above 100 µM; in the assay on CCRF-CEM, > 100 µM (inactive); in the assay on Malme-3M, > 100 µM (inactive). Also, the GI50 with DU-145, with RPMI-8226, in the assay with SF-295, in the assay on NCI/ADR-RES, in the assay on K562 and in the assay with MDA-MB-231 was > 100 µM (inactive) each time. Further, the GI50 in the assay on HT-29 and in the assay on A549 was > 100 µM (inactive) throughout.
With `CN(C)CCSS(=O)(=O)O`, the GI50 is > 100 µM (inactive) in the assay on SK-MEL-2; > 100 µM (inactive) in the assay on EKVX; > 100 µM (inactive) with IGROV-1; > 100 µM (inactive) in the assay with PC-3; > 100 µM (inactive) with SNB-19; 30.2 µM (inactive) in the assay with U-251. For the same compound, the GI50 was > 100 µM (inactive) in the assay on HL-60; < 0.01 µM (active) in the assay with SNB-75; > 100 µM (inactive) in the assay on HCT-116; above 100 µM in the assay on HCT-15; > 100 µM (inactive) in the assay with CCRF-CEM; > 100 µM (inactive) with Malme-3M. Besides, the GI50 was > 100 µM (inactive) with DU-145; > 100 µM (inactive) in the assay on RPMI-8226; 13.3 µM (inactive) in the assay with SF-295; > 100 µM (inactive) in the assay with NCI/ADR-RES; > 100 µM (inactive) in the assay with K562; > 100 µM (inactive) in the assay on MDA-MB-231. Moreover, the GI50 with HT-29 and in the assay on A549 was > 100 µM (inactive) in each case.
Consider `O=C(/C=N/O)Nc1cc(Cl)c(Cl)cc1Cl`, for which the GI50 was 24.9 µM (inactive) in the assay with SK-MEL-2; 23.2 µM (inactive) with EKVX; 20.7 µM (inactive) in the assay with IGROV-1; 33.2 µM (inactive) in the assay with PC-3; 50.5 µM (inactive) in the assay with SNB-19; 29.2 µM (inactive) in the assay with U-251. Further, the GI50 in the assay with HL-60 is 18.7 µM (inactive); with SNB-75 it was 20.7 µM (inactive); with HCT-116, 37.1 µM (inactive); in the assay on HCT-15, 31.4 µM; with CCRF-CEM it was 26.7 µM (inactive); with Malme-3M it was 35.7 µM (inactive). Also, the GI50 with DU-145 was 31.9 µM (inactive); in the assay with RPMI-8226, 27.9 µM (inactive); in the assay on SF-295 it was 27 µM (inactive); with NCI/ADR-RES, 33.9 µM (inactive); in the assay on K562 it was 25.6 µM (inactive); in the assay with MDA-MB-231, 25.8 µM (inactive). The GI50 in the assay on HT-29 is 36.8 µM (inactive); in the assay on A549, 34.5 µM (inactive).
For the compound `CCCNC(=O)c1cc(NC(=O)c2cc(NC(=O)/C=C/c3ccccc3)c(OC)c(OC)c2)c(OC)c(OC)c1`, the GI50 with SK-MEL-2 is 7.83 µM (inactive); in the assay with EKVX, 15.8 µM (inactive); in the assay with IGROV-1, 12.4 µM (inactive); with PC-3, 6.87 µM (inactive); in the assay on SNB-19 it was 5.87 µM (inactive); in the assay with U-251, 4.11 µM (inactive). In addition, the GI50 in the assay on HL-60 was > 100 µM (inactive); with SNB-75, 2.49 µM (inactive); with HCT-116 it was 5.7 µM (inactive); in the assay with HCT-15 it was 92.3 µM; in the assay on CCRF-CEM, > 100 µM (inactive); with Malme-3M, 3.08 µM (inactive). Besides, the GI50 was 24.8 µM (inactive) in the assay on DU-145; 27 µM (inactive) with RPMI-8226; 3.16 µM (inactive) with SF-295; 9.33 µM (inactive) in the assay on NCI/ADR-RES; > 100 µM (inactive) in the assay with K562; 1.26 µM (inactive) with MDA-MB-231. The GI50 with HT-29 is 11.8 µM (inactive); in the assay with A549, 5.64 µM (inactive).
Turning to `CCOC(=O)COC1=Nc2cc(OC)c(OC)c3nc(Cl)cc(c23)C1=O`, the GI50 in the assay on SK-MEL-2 is 2 µM (inactive); in the assay on EKVX, 0.716 µM (active); in the assay with IGROV-1, 2.37 µM (inactive); in the assay on PC-3 it was 1.79 µM (inactive); in the assay with SNB-19, 6.08 µM (inactive); with U-251, 2.94 µM (inactive). Besides, the GI50 was 0.252 µM (active) in the assay on HL-60; 2.51 µM (inactive) in the assay on SNB-75; 1.67 µM (inactive) in the assay on HCT-116; 2.34 µM in the assay with HCT-15; 0.299 µM (active) with CCRF-CEM; 1.36 µM (inactive) in the assay with Malme-3M. Besides, the GI50 in the assay on DU-145 is 1.82 µM (inactive); in the assay with RPMI-8226 it was 1.52 µM (inactive); in the assay on SF-295, 10 µM (inactive); with NCI/ADR-RES, 2.97 µM (inactive); with K562 it was 1.2 µM (inactive); with MDA-MB-231, 1.76 µM (inactive). Further, the GI50 in the assay with HT-29 was 2.29 µM (inactive); in the assay with A549 it was 6.18 µM (inactive).
As for `CC(C)C1/C(=N/O)CC(c2ccccc2)N(N=O)C1c1ccccc1` (stereo not given), the GI50 is 24.5 µM (inactive) in the assay on SK-MEL-2; 20.9 µM (inactive) in the assay with EKVX; 68.2 µM (inactive) in the assay with IGROV-1; 33.3 µM (inactive) in the assay on PC-3; > 100 µM (inactive) in the assay with SNB-19; 52.7 µM (inactive) with U-251. The GI50 in the assay on HL-60 was 32.1 µM (inactive); with SNB-75, 38.8 µM (inactive); in the assay on HCT-116 it was 28.5 µM (inactive); with HCT-15, 40.6 µM; in the assay with CCRF-CEM, 26.9 µM (inactive); in the assay on Malme-3M it was 23 µM (inactive). The GI50 in the assay on DU-145 is 34 µM (inactive); in the assay on RPMI-8226 it was 45.4 µM (inactive); with SF-295 it was 30.5 µM (inactive); in the assay on NCI/ADR-RES, 35.1 µM (inactive); with K562 it was 35.5 µM (inactive); with MDA-MB-231, 81.3 µM (inactive). Further, the GI50 was 21.2 µM (inactive) in the assay with HT-29 and 30.1 µM (inactive) in the assay on A549.
Turning to `COC(O)C12OC3CO[Si](C(C)C)(C(C)C)O[Si](C(C)C)(C(C)C)OC3C1Oc1nc(=O)ccn12` (stereo not given), the GI50 is 12 µM (inactive) with SK-MEL-2; 13.6 µM (inactive) in the assay on EKVX; 12.3 µM (inactive) in the assay with IGROV-1; 4.7 µM (inactive) with PC-3; 14.4 µM (inactive) with SNB-19; > 31.7 µM (inactive) in the assay on U-251. In addition, the GI50 in the assay on HL-60 is 3.29 µM (inactive); with SNB-75 it was 26.2 µM (inactive); in the assay with HCT-116 it was 8.61 µM (inactive); in the assay on HCT-15 it was 16.3 µM; in the assay on CCRF-CEM it was 4.5 µM (inactive); in the assay with Malme-3M, 13.1 µM (inactive). Moreover, the GI50 in the assay with DU-145 was 16.3 µM (inactive); in the assay on RPMI-8226 it was 1 µM (active); in the assay on SF-295, 12.2 µM (inactive); in the assay on NCI/ADR-RES it was 21.6 µM (inactive); in the assay with K562, 1.52 µM (inactive); in the assay with MDA-MB-231, 17.1 µM (inactive). Also, the figures for the GI50 in the assay on HT-29 and with A549 were 6.73 µM (inactive) and 12.6 µM (inactive), respectively.
`COc1ccc(CC[N+]2(C)COc3cc4oc(=O)cc(C)c4cc3C2)cc1OC` (stereo not given): the GI50 with SK-MEL-2, with EKVX, with IGROV-1, in the assay on PC-3, in the assay with SNB-19 and with U-251 was > 100 µM (inactive) throughout. For the same compound, the GI50 with HL-60 is > 100 µM (inactive); in the assay on SNB-75, > 100 µM (inactive); in the assay with HCT-116, > 100 µM (inactive); with HCT-15, above 100 µM; with CCRF-CEM it was > 100 µM (inactive); with Malme-3M, > 100 µM (inactive). Further, the GI50 with DU-145 was > 100 µM (inactive); in the assay on RPMI-8226, > 100 µM (inactive); in the assay with SF-295 it was > 100 µM (inactive); in the assay with NCI/ADR-RES, > 100 µM (inactive); in the assay with K562, 2.45 µM (inactive); in the assay with MDA-MB-231 it was > 100 µM (inactive). Also, the GI50 in the assay on HT-29 and with A549 was > 100 µM (inactive) each time.
For `CC1=CC(C)C/C=C/C2C3OC3(C)C(C)C3C(Cc4c[nH]c5ccccc45)NC(=O)C23C(=O)C=CC(=O)C1O` (stereo not given), the GI50 with SK-MEL-2 is 15.8 µM (inactive); with EKVX it was 1.19 µM (inactive); in the assay on IGROV-1, 11.1 µM (inactive); with PC-3, 11.6 µM (inactive); in the assay with SNB-19, 11 µM (inactive); with U-251 it was 16.4 µM (inactive). Besides, the GI50 with HL-60 is 1.61 µM (inactive); with SNB-75, 0.728 µM (active); in the assay on HCT-116, 2.95 µM (inactive); with HCT-15, 2.26 µM; in the assay with CCRF-CEM, 0.247 µM (active); with Malme-3M, 1.56 µM (inactive). Further, the GI50 is 14.1 µM (inactive) in the assay with DU-145; 0.272 µM (active) in the assay with RPMI-8226; 11.9 µM (inactive) in the assay with SF-295; 24.3 µM (inactive) in the assay on NCI/ADR-RES; 3.06 µM (inactive) in the assay with K562; 4.67 µM (inactive) with MDA-MB-231. Further, the GI50 with HT-29 is 1.42 µM (inactive); with A549, 8.3 µM (inactive).
For `CC1=NNC(=O)C1C1CC(c2c[nH]c3ccccc23)=NN=C1Cl` (stereo not given), the GI50 is > 100 µM (inactive) in the assay on SK-MEL-2; 70.8 µM (inactive) in the assay with EKVX; 20.6 µM (inactive) with IGROV-1; 56.5 µM (inactive) in the assay with PC-3; 40.9 µM (inactive) with SNB-19; 43.6 µM (inactive) in the assay with U-251. Moreover, the GI50 with HL-60 was 20 µM (inactive); in the assay with SNB-75, 75 µM (inactive); in the assay on HCT-116 it was 44.3 µM (inactive); with HCT-15, 35.8 µM; in the assay on CCRF-CEM, 25.8 µM (inactive); with Malme-3M it was > 100 µM (inactive). Also, the GI50 with DU-145 is > 100 µM (inactive); in the assay on RPMI-8226 it was 23.7 µM (inactive); in the assay on SF-295, 53.1 µM (inactive); in the assay on NCI/ADR-RES it was > 100 µM (inactive); in the assay with K562, 28.4 µM (inactive); with MDA-MB-231 it was 46.6 µM (inactive). For the same compound, the GI50 is 40.9 µM (inactive) in the assay on HT-29 and 57.4 µM (inactive) with A549.
